The text below walks through data of patent publication EP0527720B1, “THERAPEUTIC AGENTS” (The Boots Company PLC, priority 1989, dated 1990).

The data set deals with heart failure patients. As to the kind of experiment: Earlier clinical studies of flosequinan 150 mg alone in heart failure patients. To be noted: heart failure patients receiving 150 mg doses of flosequinan. It is filed as in vivo, human. From the text:
An increase of heart rate is generally an undesirable effect in the treatment of heart failure since additional stress is placed on the failing heart. Furthermore, patients receiving such therapy may report adverse drug events associated with the increase in heart rate such as tachycardia and palpitations. These undesirable side effects of vasodilatory drug therapy effectively limit the maximum dose of the drug which can be safely administered.
This was particularly remarkable since no increase in heart rate (HR) was apparent. This implies that the increase in cardiac output (CO) evident after coadministration of captopril and flosequinan is due to an increase in stroke volume and not due, at least in part, to an increase in heart rate (HR) as expected.

With `Cn1cc([S+](C)[O-])c(=O)c2ccc(F)cc21` (stereo not shown) [flosequinan, 7-fluoro-1-methyl-3-methylsulphinyl-4-quinolone], the heart rate entry is given as “an increase of heart rate occurs”.
